Target: T1, fibrinogen (Evicel) (Homo sapiens, UniProt P02671+P02675+P02679)
T1 construct: purchased Ethicon (Evicel Biologically Active Component 2)
T1 sequence (P02671 20-629 limits assumed): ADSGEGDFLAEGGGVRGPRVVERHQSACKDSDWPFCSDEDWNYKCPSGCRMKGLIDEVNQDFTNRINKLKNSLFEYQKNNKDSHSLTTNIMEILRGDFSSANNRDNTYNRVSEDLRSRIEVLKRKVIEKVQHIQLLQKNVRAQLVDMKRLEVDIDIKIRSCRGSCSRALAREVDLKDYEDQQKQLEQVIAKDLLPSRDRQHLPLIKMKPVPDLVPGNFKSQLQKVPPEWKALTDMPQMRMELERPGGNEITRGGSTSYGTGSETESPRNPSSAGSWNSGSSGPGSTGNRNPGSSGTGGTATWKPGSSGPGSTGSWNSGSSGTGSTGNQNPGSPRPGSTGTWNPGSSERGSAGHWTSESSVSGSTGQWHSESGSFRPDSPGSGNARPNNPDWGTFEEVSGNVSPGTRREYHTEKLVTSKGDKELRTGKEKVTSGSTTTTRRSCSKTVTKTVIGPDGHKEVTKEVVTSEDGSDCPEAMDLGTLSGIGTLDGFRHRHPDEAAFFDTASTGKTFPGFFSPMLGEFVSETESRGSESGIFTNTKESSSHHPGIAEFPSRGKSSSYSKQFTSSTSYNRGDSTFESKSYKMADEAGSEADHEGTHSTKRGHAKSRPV
T1 sequence (P02675 31-491): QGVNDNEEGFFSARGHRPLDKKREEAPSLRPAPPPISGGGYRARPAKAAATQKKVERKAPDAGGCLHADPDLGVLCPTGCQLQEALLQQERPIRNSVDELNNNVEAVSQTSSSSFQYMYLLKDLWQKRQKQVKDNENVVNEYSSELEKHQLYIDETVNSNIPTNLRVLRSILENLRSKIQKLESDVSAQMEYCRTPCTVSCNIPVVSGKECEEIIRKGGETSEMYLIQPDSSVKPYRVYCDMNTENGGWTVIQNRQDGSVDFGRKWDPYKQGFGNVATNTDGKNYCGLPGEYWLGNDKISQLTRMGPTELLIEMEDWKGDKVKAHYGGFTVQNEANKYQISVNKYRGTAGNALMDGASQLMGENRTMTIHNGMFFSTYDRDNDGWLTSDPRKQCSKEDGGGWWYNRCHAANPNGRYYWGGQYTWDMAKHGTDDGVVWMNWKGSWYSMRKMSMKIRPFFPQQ
T1 sequence (P02679 27-433 limits assumed): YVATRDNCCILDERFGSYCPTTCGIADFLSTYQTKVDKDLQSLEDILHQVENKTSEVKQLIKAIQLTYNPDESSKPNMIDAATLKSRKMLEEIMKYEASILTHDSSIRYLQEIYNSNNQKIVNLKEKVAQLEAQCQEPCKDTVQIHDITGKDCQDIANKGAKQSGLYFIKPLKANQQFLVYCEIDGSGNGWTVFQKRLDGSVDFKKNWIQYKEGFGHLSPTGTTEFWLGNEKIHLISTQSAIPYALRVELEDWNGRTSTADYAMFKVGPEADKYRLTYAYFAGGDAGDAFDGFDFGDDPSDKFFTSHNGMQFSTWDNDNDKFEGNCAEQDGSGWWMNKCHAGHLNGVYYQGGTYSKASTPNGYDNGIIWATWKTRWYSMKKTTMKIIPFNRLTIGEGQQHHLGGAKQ
Experiment: Fibrinogen clotting assay with coagulation analyzer (Clauss method), tissue glue fibrinogen
Type: biochemical
Settings: for gelation time (average clotting time): 4.58 mM additive in PBS, fixed 1:20 dilution of fibrinogen (Evicel), n=10; for Effect on Clotting Time: screen, multiple concentrations up to 4.58 mM

| Compound | gelation time (average clotting time) [s] | Effect on Clotting Time | further results |
| --- | --- | --- | --- |
| Cc1cc(N=Nc2ccc(C)c(N=Nc3cc(C)c(N)cc3N)c2)c(N)cc1N.Cl.Cl [BBr, Bismarck Brown R, reference compound] | 18.9 ± 3.3 | No effect |  |
| CC1(C)C(/C=C/C=C/C=C/C=C2\N(CCCCS(=O)(=O)O)c3ccc4ccccc4c3C2(C)C)=[N+](CCCCS(=O)(=O)[O-])c2ccc3ccccc3c21 [ICG, Indocyanine Green, reference compound] |  | caused protein precipitation | Effect on Clotting Time (listed as Indocyanine Green (ICG)): Precip |
| Brilliant Blue R [BB, reference compound] |  | caused protein precipitation | Effect on Clotting Time (listed as Brilliant Blue R (BB)): Precip |
| O=C([O-])c1ccccc1-c1c2ccc(=O)cc-2oc2cc([O-])ccc12.[Na+].[Na+] [SF, Sodium Fluorescein, reference compound] | 18.5 ± 2.6 | No effect |  |
| Alcian Blue [AB, reference compound] |  | caused protein precipitation | Effect on Clotting Time (listed as Alcian Blue (AB)): Precip |
| Nc1c(/N=N/c2ccc(-c3ccc(/N=N/c4cc(S(=O)(=O)O)c5ccccc5c4N)cc3)cc2)cc(S(=O)(=O)O)c2ccccc12 [CR, Congo Red, reference compound] |  | caused protein precipitation | Effect on Clotting Time (listed as Congo Red (CR)): Precip |

— US20230414826A1, “FIBRIN HYDROGELS” (Mayo Foundation for Medical Education and Research, priority 2020, published 2023)
